# US11167039B2, “MET antibody drug conjugates” (priority 2016, dated 2021)
# “Also recorded” adds a separate entry of the source.
# Key:
# NCI-H292 = test: Cell killing, NCI-H292; assay type: cell-based, human; design: key: Sensitive; Resistant; details: NCI-H292, NSCLC
# Method: (§1) Briefly described, 2-3×10^3 cells/well in 100 μL of culture medium may be plated in 96 well plates and incubated overnight at 37° C., 5% CO2. The MET-ADCs, MET antibody(ies), control MMAE or control hIgG4 conjugated to MMAE with cysteine conjugation antibody(ies) may be diluted 1:3 in serum-free culture medium starting from 100 nM (final) in 50 μL as 3× concentrations to the HT-29 cells. At the end of an additional 5-6 days of cell growth at 37° C. in a humidified incubator with 5% CO2, the plates may be equilibrated to room temperature for 30 minutes and 100 μL/well of CellTiter-Glo® reagent (Promega Corp., Fitchburg, Wis.) may then be added to assess cell viability. Cell viability may be determined by measuring luminescence.
# (§2) Various tumor cell lines and normal human cells may be tested for MET-ADC induced cell killing activity essentially as described above in Example 10 as assessed for MET receptor density. MET cell surface density was determined by indirect immunofluorescence staining of cell surface antigens on cultured cells using QIFIKIT (Dako). […] Following a forty-five minute incubation, cells may be incubated for 1 hour on ice with FITC conjugated antibody diluted 1:50 in FACS buffer. Then cells may be washed and receptor numbers may be determined by indirect immunofluorescence staining of the QIFIKIT beads using a Becton Dickinson LSRII flow cytometer.
# Caco-2 = test: Cell killing, Caco-2; assay type: cell-based, human; design: key: Sensitive; Resistant; details: Caco-2, Colorectal Ca
# Method: as §1, §2
# [1] = test system: colorectal cancer PDX tumors; test: Colorectal cancer PDX models; assay type: in vivo, mouse; details: 1 or 3 mg/kg weekly, four doses
# Source text: (§3) Body weight can also be assessed regularly.
# Colorectal tumor samples from 37 human colorectal cancer patients were individually implanted into different immunocompromised mice (i.e., each mouse carried one tumor derived from a patient's […] tumor) essentially as described above in this Example 13.
# SW 1990 = test: Cell killing, SW 1990; assay type: cell-based, human; design: key: Sensitive; Resistant; details: SW 1990, PANC Ca
# Method: as §1, §2
# [2] = test system: HT-29 colon cancer tumor xenografts; test: HT-29 mouse xenograft model; assay type: in vivo; details: 1 mg/kg x3 Q7D
# Method: Female athymic nude mice age 6- to 7-weeks old are available commercially, including from Harlan Laboratories (Indianapolis, Ind.). The mice are allowed to acclimate for one week and fed ad libitum on a normal low fat (4.5%) diet, which may be continued for the duration of the study. Tumor cells may be purchased from ATCC and may be cultured in cell culture media such as RPMI 1640 (Life Technologies) with L-glutamine, 25 mM HEPES supplemented with 10% FBS and 1 mM Na Pyruvate. Cells may be detached, washed with serum free medium and then resuspended at a final concentration of 50×10^6 cells/mL in serum free RPMI 1640. Tumor cells, approximately 5×10^6, may be injected subcutaneously in the rear flank of subject mice in a 1:1 mixture of serum free growth medium and Matrigel (Becton Dickinson, Bedford, Mass.). Tumor and body weight measurements may be performed twice weekly. Prior to treatment, mice can be randomized based on tumor size using a randomization algorithm. Treatments may be started when the average tumor volume reaches 100 mm^3. […]
# MET-ADCs and control hIgG4-MMAE may be prepared in Phosphate Buffered Saline (PBS) prior to dose. Tumor size may be determined by caliper measurements. […] Tumor volume data can be transformed to a log scale to equalize variance across time and treatment groups. Log volume data can be analyzed with two-way repeated measures ANOVA by time and treatment using SAS PROC MIXED software (SAS Institutes Inc, Cary, N.C.). Treatment groups are compared with the specified control group at each time point.
# PC3 = test: Cell killing, PC3; assay type: cell-based, human; design: key: Sensitive; Resistant; details: PC3, Prostatic Ca
# Method: as §1, §2
# L55 = test: Cell killing, L55; assay type: cell-based, human; design: key: Sensitive; Resistant; details: L55, NSCLC
# Method: as §1, §2
# OV79 = test: Cell killing, OV79; assay type: cell-based, human; design: key: Sensitive; Resistant; details: OV79, Ovarian Ca
# Method: as §1, §2
# Hs 746T = test: Cell killing, Hs 746T; assay type: cell-based, human; design: key: Sensitive; Resistant; details: Gastric Ca
# Method: as §1, §2
# [3] = test system: cholangiocarcinoma PDX tumors; test: Cholangiocarcinoma PDX model; assay type: in vivo, mouse; details: 5 mg/kg weekly, four doses; 4 cholangiocarcinoma PDX
# Source text: as §3
# Tumor samples from 4 human cholangiocarcinoma patients were individually implanted into different immunocompromised mice (i.e., each mouse carried one tumor derived from a patient's cholangiocarcinoma tumor) essentially as described above in this Example 13.
# BxPC-3 = test: Cell killing, BxPC-3; assay type: cell-based, human; design: key: Sensitive; Resistant; details: BxPC-3, PANC Ca
# Method: as §1, §2
# CXF-269L = test: Cell killing, CXF-269L; assay type: cell-based, human; design: key to Sensitive/ Resistant: Sensitive; Resistant
# Method: as §1, §2
# MiaPaca-2 = test: Cell killing, MiaPaca-2; assay type: cell-based, human; design: key: Sensitive; Resistant; details: MiaPaca-2, PANC Ca
# Method: as §1, §2
# A204 = test: Cell killing, A204; assay type: cell-based, human; design: key: Sensitive; Resistant; details: A204, Rhabdomyosarcoma
# Method: as §1, §2
# SNU-5 = test: Cell killing, SNU-5; assay type: cell-based, human; design: key: Sensitive; Resistant; details: SNU-5, Gastric Ca
# Method: as §1, §2
# LS411N = test: Cell killing, LS411N; assay type: cell-based, human; design: key to Sensitive/ Resistant: Sensitive; Resistant
# Method: as §1, §2
# HPAF-II = test: Cell killing, HPAF-II; assay type: cell-based, human; design: key: Sensitive; Resistant; details: PANC Ca
# Method: as §1, §2
# RKO = RKO cell-killing assay; assay type: cell-based, human; details: RKO (BRAF, PIK3) colon cancer cells
# Method: as §1, §2
# [4] = test system: pancreatic cancer PDX tumors; test: Pancreatic cancer patient-derived xenograft (PDX) models; assay type: in vivo, mouse; details: 5 mg/kg weekly, four doses
# Source text: as §3
# Pancreatic tumors are known in the art to overexpress MET and have more than 90% KRAS mutations (Yabar, C. S. and Winter, J. M., Gastroenterol Clin N Am 45: 429-445 (2016)). Pancreatic tumor samples from 40 human pancreatic cancer patients were individually implanted into different immunocompromised mice (i.e., each mouse carried one tumor derived from a patient's […] tumor) essentially as described above in this Example 12.
substance,measurement,setting,value
"MET-ADC#1: emibetuzumab lysine-conjugated via (2,5-dioxopyrrolidin-1-yl) 2-azidoacetate and Octyne-β-Glucn-MMAE",Sensitive/ Resistant,NCI-H292,S
same,Sensitive/ Resistant,Caco-2,R
same,Complete Response (CR),[1]; 37 PDX,5.4%
same,activity in colorectal cancer PDX models,[1]; vs control hIgG4-ADC,little activity
same,Sensitive/ Resistant,SW 1990,R
same,Observation (efficacy in HT-29 mouse xenograft),[2],Tumor regression^
same,Observation (efficacy in HT-29 mouse xenograft),[2]; listed as MET-ADC #1,far superior efficacy
same,Sensitive/ Resistant,PC3,S
same,Sensitive/ Resistant,L55,R
same,Sensitive/ Resistant,OV79,S
same,Sensitive/ Resistant,Hs 746T,S
same,inhibition of tumor growth,[3],dramatically inhibited tumor growth
same,Sensitive/ Resistant,BxPC-3,S
same,cell killing activity in CXF-269L cells,CXF-269L; CXF-269L (TP53) colon cancer cells,killed
same,Sensitive/ Resistant,"CXF-269L; CXF-269L, Colorectal Ca",S
same,Sensitive/ Resistant,MiaPaca-2,R
same,Sensitive/ Resistant,A204,R
same,Sensitive/ Resistant,SNU-5,S
same,cell killing activity in LS411N cells,"LS411N; LS411N (BRAF, PIK3) colon cancer cells",killed
same,Sensitive/ Resistant,"LS411N; LS411N, Colorectal Ca",S
same,Sensitive/ Resistant,HPAF-II,S
same,cell killing activity in RKO cells,RKO,killed; also recorded: highly potent in killing RKO cells
same,DCR: disease control rate (CR+PR+SD over total 40),[4],60%
same,"PD: progressive disease (% Delta T/C>10%), number of PDX",[4]; total 40,16
same,"PR: partial response (% Regression<=−50% and tumor volume>14 mm^3), number of PDX",[4]; total 40,9
same,effect on volume of pancreatic cancer PDX tumors,[4]; vs control hIgG4-ADC,profoundly reduced the volume of the pancreatic cancer PDX tumors
